In US20210116454A1, “METHODS FOR TREATING A HEMATOLOGICAL CANCER AND THE USE OF COMPANION BIOMARKERS FOR 2-(2,6-DIOXOPIPERIDIN-3-YL)-4-((2-FLUORO-4-((3-MORPHOLINOAZETIDIN-1-YL)METHYL)BENZYL)AMINO)ISOINDOLINE-1,3-DIONE” (CELGENE CORPORATION, priority 2019, published 2021):

Assays:
[1] = system: DoxoR cell lines; assay: Doxorubicin-resistant (DoxoR) versus matching parental DLBCL lines; type: cell-based; details: DoxoR versus matching parental cells
Description: The activity of Compound 1 was also evaluated in cell lines with acquired resistance to doxorubicin (Table 4). Doxorubicin-resistant cell lines (DoxoR) were generated by culturing the parental cell lines in vitro with increasing concentrations of doxorubicin for a long period of time (˜9 to 18 months) until they were able to grow in the presence of a relatively high concentration of doxorubicin (1 μM). Matching parental (M-Parent) cells were generated by maintaining the parental cells in culture without treatment for the same amount of time (˜9 to 18 months). The growth-inhibitory effect of doxorubicin on parental cells and the corresponding resistant cells was evaluated by measuring the number of viable cells and extent of apoptosis by 7-AAD exclusion and Annexin V staining using flow cytometry.

[2] = system: SU-DHL-2^CRBN−/− cells; assay: Western blot time- and concentration-response in cereblon knockout cells; type: cell-based
Description: However, Compound 1 had no activity in SU-DHL-2^CRBN−/− cells, indicating the requirement of cereblon for induction of apoptosis by Compound 1 in DLBCL (FIG. 5 C).

[3] = system: SU-DHL-2^CRBNWT cells; assay: Live-cell imaging of caspase-3 activation; type: cell-based; details: time course of 112 hours
Description: To confirm the timing of induction of apoptosis and its cereblon dependency, a live-cell imager that provides kinetic, real-time caspase-3 activation (indicator of apoptosis) data was used. SU-DHL-2^CRBNWT cells treated with Compound 1 were analyzed for caspase-3 activation by following the cleavage in cells of a specific caspase-3 enzyme substrate over a time course of 112 hours. Compound 1-dependent induction of caspase-3 activity began at 12 hours post treatment and reached maximal induction at ˜72 hours (FIG. 5 D).

[4] = system: MyoF system; assay: BioMAP MyoF system (lung fibroblasts); type: cell-based, human; details: 0.01, 0.1, 1, and 10 μM
Description: The activity of Compound 1 was profiled in a panel of human primary cell-based assays, modeling complex tissue and disease biology of organs (vasculature, immune system, skin, lung) and general tissue biology using the BioMAP System (DiscoveRx, Fremont, Calif.).
The BioMAP System consists of twelve primary human monoculture or co-culture systems in stimulated and non-stimulated control conditions (FIG. 4, panel A). When tested at 0.01, 0.1, 1, and 10 μM, Compound 1 mediated changes in key biomarker activities. Specifically, the profiles for Compound 1 reflected selective anti-inflammatory and immunomodulatory impact on monocyte (LPS) and T cell dependent B cell activation responses (BT). Treatment with Compound 1 led to a decrease in interleukin 8 (IL-8), interleukin 1a (IL-1a), secreted prostaglandin E2 (sPGE2), and secreted tumor necrosis factor alpha (sTNFα) in the LPS system, which consisted of peripheral blood mononuclear cells (PBMCs) and endothelial cells. Furthermore, secreted IgG (sIgG), secreted interleukin 17A (sIL-17A), secreted interleukin 17F (sIL-17F), and sTNFα decreased, whereas secreted interleukin 2 (sIL-2) and secreted interleukin 6 (sIL-6) increased, in the BT system, which was comprised of B cells and PBMCs.

[5] = target: T1, ZFP91 (Homo sapiens, UniProt Q96JP5+Q96SW2); assay: ePL-tagged substrate degradation kinetics in DF15 cells (enantiomer comparison); type: cell-based; design: ZFP91 Y-constant: scale not given here; details: for DC50: read-out: ZFP91 EC50
T1 construct: expressed in transfected cells; host or cells: DF15 cells
Description: In a second assay, DF15 cell lines expressing ePL-tagged target protein substrates were used as a model system to monitor protein degradation at 0.75, 1, 1.5, 3, 4, and 24 hours over a concentration range from 1 pM to 10 μM. The proteins evaluated were Ikaros (FIG. 17), Aiolos, and ZFP91. Compound 1 and Compound 2 were both able to degrade the substrate proteins at all time points (Table 9). In a further assay, additional time points were included to monitor the effect of treatment with Compound 1 and Compound 2.
The depth of substrate protein degradation described by the Y-constant was also measured in this assay against a negative control luciferase inhibitor (CC1071297, Y-constant=0).

[6] = system: WSU-DLCL2 CRBN^WT cells; assay: Cell proliferation in CRBN^WT (CAS9 control) cells, 5 days; type: cell-based; details: Homo sapiens, WSUDLCL2, 120 h
Description: (§1) The activated B-cell (ABC) and MYC/BCL2 double expressor cell lines SU-DHL-2 and RIVA, the germinal center B-cell (GCB) and MYC/BCL2 double hit cell lines (and expressing BCL6) Karpas-422, SU-DHL-10, WSU-DLCL2, and the primary mediastinal B-cell lymphoma (PMBL) cell line Farage were infected with a CAS9 expressing lentivirus construct to generate the control CAS9 expressing cells. The Cas9 cells had wild type cereblon expression (CRBN^WT).
(§2) To generate the cereblon knock out cells (CRBN^−/−), the individual control CAS9 cells were infected with a construct expressing a subgenomic single guide RNA (sgRNA). Western blot analysis confirmed the absence of cereblon protein in the CRBN^−/− cells, relative to the levels of the housekeeping protein β-tubulin. The CRBN^WT and CRBN^−/− cells were treated with increasing concentrations of Compound 1 for five days.

[7] = system: RIVA CRBN^WT cells; assay: as above; type: cell-based; details: 120 h
Description: as §1, §2

[8] = system: SU-DHL10 CRBN^WT cells; assay: as above; type: cell-based; details: Homo sapiens, 120 h
Description: as §1, §2

[9] = system: SU-DHL2 CRBN^WT cells; assay: as above; type: cell-based; details: Homo sapiens, SU-DHL-2, 120 h
Description: as §1, §2

[10] = system: Karpas-422 CRBN^WT cells; assay: as above; type: cell-based; details: Homo sapiens, 120 h
Description: as §1, §2

[11] = system: Farage CRBN^WT cells; assay: as above; type: cell-based; details: 120 h
Description: as §1, §2

[12] = target: T1, ZFP91; assay: Enzyme fragment complementation (EFC) degradation assay, DF15 cells expressing ePL-tagged substrate; type: cell-based; details: for Emax: remaining substrate; for DC50: read-out: ZFP91 degradation EC50

T1 sequence (Q96JP5 whole entry): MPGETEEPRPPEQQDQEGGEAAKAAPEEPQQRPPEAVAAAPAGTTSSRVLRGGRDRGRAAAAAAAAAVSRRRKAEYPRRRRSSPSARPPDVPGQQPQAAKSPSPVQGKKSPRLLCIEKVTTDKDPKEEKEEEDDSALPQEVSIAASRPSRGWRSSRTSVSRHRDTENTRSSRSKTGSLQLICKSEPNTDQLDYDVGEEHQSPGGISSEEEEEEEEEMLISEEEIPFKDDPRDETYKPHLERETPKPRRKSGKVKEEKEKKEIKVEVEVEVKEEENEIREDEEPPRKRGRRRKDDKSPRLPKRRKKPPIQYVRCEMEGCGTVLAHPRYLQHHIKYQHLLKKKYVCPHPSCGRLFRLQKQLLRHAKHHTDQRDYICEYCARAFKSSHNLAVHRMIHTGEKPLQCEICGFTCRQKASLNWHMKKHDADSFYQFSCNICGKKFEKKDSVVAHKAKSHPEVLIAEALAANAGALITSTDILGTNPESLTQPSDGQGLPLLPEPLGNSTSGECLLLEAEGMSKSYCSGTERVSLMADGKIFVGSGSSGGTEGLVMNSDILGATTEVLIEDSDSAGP
T1 sequence (Q96SW2 whole entry): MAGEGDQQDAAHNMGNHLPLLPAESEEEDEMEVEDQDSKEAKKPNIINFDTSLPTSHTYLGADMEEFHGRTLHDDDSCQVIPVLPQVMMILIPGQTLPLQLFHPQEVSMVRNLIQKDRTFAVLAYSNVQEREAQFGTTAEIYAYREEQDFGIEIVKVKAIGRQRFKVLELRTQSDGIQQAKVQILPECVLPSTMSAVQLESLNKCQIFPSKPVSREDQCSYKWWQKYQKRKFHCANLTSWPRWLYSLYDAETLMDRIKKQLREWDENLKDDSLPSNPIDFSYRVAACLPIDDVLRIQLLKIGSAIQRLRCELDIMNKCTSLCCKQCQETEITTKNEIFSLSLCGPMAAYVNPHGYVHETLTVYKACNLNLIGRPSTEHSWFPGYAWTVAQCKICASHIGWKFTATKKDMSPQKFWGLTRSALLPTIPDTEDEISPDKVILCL
T1 sequence (Q16531 whole entry partner): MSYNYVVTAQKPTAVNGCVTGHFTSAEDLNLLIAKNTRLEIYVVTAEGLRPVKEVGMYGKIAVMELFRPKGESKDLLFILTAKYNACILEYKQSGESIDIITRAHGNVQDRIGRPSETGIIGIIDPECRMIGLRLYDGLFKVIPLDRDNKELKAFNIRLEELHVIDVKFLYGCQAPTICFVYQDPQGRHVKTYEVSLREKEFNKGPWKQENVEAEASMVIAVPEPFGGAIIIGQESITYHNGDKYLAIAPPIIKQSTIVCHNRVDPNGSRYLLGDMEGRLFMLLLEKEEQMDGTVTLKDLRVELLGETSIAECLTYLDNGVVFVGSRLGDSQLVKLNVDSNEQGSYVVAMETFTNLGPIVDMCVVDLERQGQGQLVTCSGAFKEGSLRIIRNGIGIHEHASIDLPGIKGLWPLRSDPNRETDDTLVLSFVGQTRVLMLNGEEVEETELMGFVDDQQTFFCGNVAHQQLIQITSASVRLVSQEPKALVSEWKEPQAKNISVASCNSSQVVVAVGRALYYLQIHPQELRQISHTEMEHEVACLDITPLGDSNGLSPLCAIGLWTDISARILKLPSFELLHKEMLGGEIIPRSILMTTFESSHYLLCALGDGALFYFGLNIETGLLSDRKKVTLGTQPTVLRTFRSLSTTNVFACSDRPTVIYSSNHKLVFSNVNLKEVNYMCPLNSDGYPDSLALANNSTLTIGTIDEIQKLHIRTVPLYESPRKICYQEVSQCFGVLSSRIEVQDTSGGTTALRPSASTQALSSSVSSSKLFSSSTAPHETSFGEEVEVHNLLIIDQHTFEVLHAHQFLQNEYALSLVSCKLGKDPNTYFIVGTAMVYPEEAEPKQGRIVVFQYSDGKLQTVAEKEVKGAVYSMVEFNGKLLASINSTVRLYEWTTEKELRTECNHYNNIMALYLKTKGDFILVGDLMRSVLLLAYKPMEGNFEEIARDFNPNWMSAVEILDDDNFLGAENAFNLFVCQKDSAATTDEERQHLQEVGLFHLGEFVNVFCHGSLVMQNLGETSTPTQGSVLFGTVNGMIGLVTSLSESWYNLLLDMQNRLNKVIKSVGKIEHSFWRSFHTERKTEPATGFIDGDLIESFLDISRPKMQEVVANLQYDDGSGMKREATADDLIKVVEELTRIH

## COc1cccc2c1C(=O)c1c(O)c3c(c(O)c1C2=O)C[C@@](O)(C(=O)CO)C[C@@H]3O[C@H]1C[C@H](N)[C@H](O)[C@H](C)O1 [Doxorubicin, reference compound]
[1]
  shifts in IC50 values for doxorubicin in DoxoR lines: more than 100 fold

## O=C1CC[C@H](N2C(=O)c3cccc(NCc4ccc(CN5CC(N6CCOCC6)C5)cc4F)c3C2=O)C(=O)N1 [Compound 1, (S)-2-(2,6-dioxopiperidin-3-yl)-4-((2-fluoro-4-((3-morpholinoazetidin-1-yl)methyl)benzyl)amino)isoindoline-1,3-dione]
[2]
  activity in cereblon knockout cells: no activity
[3]
  start of induction of caspase-3 activity post treatment: 12 h
  time of maximal induction of caspase-3 activity: ~72 h
[4]
  collagen-I and -III expression: compelling inhibition
  plasminogen activator inhibitor-1 (PAI-1) expression: slight inhibition
[5]; 0.75 hours
  ZFP91 Y-constant: 37
  DC50: 0.54 nM
[5]; 1 hour
  ZFP91 Y-constant: 28
  DC50: 0.36 nM
[5]; 1.5 hours
  ZFP91 Y-constant: 11
  DC50: 0.36 nM
[5]; 3 hours
  ZFP91 Y-constant: 4.9
  DC50: 0.19 nM
[5]; 4 hours
  ZFP91 Y-constant: 4.3
  DC50: 0.17 nM
[5]; 24 hours
  ZFP91 Y-constant: 2.0
  DC50: 0.15 nM
[6]
  Emax: 19%
  IC50: 40 nM
[7]
  Emax: 30%
  IC50: 8 nM
[8]
  Emax: 0%
  IC50: 35 nM
[9]
  Emax: 1%
  IC50: 2.5 nM
[10]
  Emax: 5%
  IC50: 15 nM
[11]
  Emax: 0.5%
  IC50: 8 nM
[12]; DF15, DF15 ePL-ZFP91, 1 hour
  Emax: 64%
[12]; DF15, DF15 ePL-ZFP91, 2 hours
  Emax: 26.5%
[12]; DF15, DF15 ePL-ZFP91, 6 hours
  Emax: 4%
[12]; DF15, DF15 ePL-ZFP91, 24 hours
  Emax: 2.5%
[12]; DF15 ePL-ZFP91, 1 hour
  DC50: 1 nM
[12]; DF15 ePL-ZFP91, 2 hours
  DC50: 0.5 nM
[12]; DF15 ePL-ZFP91, 6 hours
  DC50: 0.2 nM
[12]; DF15 ePL-ZFP91, 24 hours
  DC50: 0.1 nM
